Laboratory results from patent publication US10738051B2, “β-lactamase inhibitors” (priority 2016, dated 2020).

How the values were obtained:
[1] = test system: K. pneumoniae ATCC BAA-2524 (OXA-48); assay: In vitro synergistic inhibitory concentration (SIC) assay; format: cell-based; conditions: Klebsiella pneumoniae, ATCCBAA2524, 37° C. 20 hours, read-out: minimum inhibitory concentration, used alone
Protocol: (§1) 2) 30 μL dimethyl sulfoxide was added to columns 2-12 of the 96-V well plate. 60 μL prepared ceftazidime was added to column 1. 30 μL ceftazidime was transferred from column 1 to column 2 and mixed with a pipette. The same operation was continued until column 11, and 30 μL of the mixture in column 11 was discarded. This was the compound mother plate.
(§2) Mix the liquid in the mother plate with a pipette.
(§3) 4) One day before the experiment, the bacterial glycerol stock which was stored in a −80° C. refrigerator was streaked on a trypticase soy agar plate (TSA), and the plate was incubated in a 37° C. incubator overnight. On the day of the experiment, the monoclonal bacterial was suspended in physiological saline and the turbidity of which was adjusted to 0.5 McFarland standard, corresponding to 1×10^8 CFU/ml. This suspension was diluted 100-fold to 1×10^6 CFU/mL with caton-adjusted Mueller-Hnton broth (CAMHB), which was used as an inoculation fluid.
(§4) 5) a 96-U plate was used as a test plate. Firstly, adding 98 μL CAMHB to each well of the test plate and transferring 2 μL solution in the mother plate to the test plate. 100 μL inoculation fluid was added to each well of the test plate.
(§5) 6) The test plate was incubated at 37° C. for 20 hours.
(§6) The above-mentioned method was also used to determine the antibacterial activity of the test compound or the antibiotic when used alone.

[2] = test system: K. pneumoniae ATCC BAA-2472 (NDM-1); assay: as above; format: cell-based; conditions: Klebsiella pneumoniae, ATCCBAA2472, 37° C. 20 hours, read-out: minimum inhibitory concentration, used alone
Protocol: as §1, §2, §3, §4, §5, §6

[3] = test system: K. pneumoniae ATCC BAA-2470 (NDM-1); assay: as above; format: cell-based; conditions: Klebsiella pneumoniae, ATCCBAA2470, 37° C. 20 hours, read-out: minimum inhibitory concentration, used alone
Protocol: as §1, §2, §3, §4, §5, §6

[4] = test system: E. coli ATCC BAA-2523 (OXA-48); assay: as above; format: cell-based; conditions: Escherichia coli, ATCCBAA2523, 37° C. 20 hours, read-out: minimum inhibitory concentration, used alone
Protocol: as §1, §2, §3, §4, §5, §6

[5] = test system: K. pneumoniae ATCC-700603 (SHV-18); assay: as above; format: cell-based; conditions: Klebsiella pneumoniae, ATCC700603, 37° C. 20 hours, read-out: minimum inhibitory concentration, used alone
Protocol: as §1, §2, §3, §4, §5, §6

[6] = test system: K. pneumoniae ATCC 51504 (TEM-10); assay: as above; format: cell-based; conditions: Klebsiella pneumoniae, ATCC51504, 37° C. 20 hours, read-out: minimum inhibitory concentration, used alone
Protocol: as §1, §2, §3, §4, §5, §6

[7] = test system: K. pneumoniae ATCC BAA-1144 (AmpC); assay: as above; format: cell-based; conditions: Klebsiella pneumoniae, ATCCBAA1144, 37° C. 20 hours, read-out: minimum inhibitory concentration, used alone
Protocol: as §1, §2, §3, §4, §5, §6

[8] = test system: K. pneumoniae ATCC BAA-1899 (KPC); assay: as above; format: cell-based; conditions: Klebsiella pneumoniae, ATCCBAA1899, 37° C. 20 hours, read-out: minimum inhibitory concentration, used alone
Protocol: as §1, §2, §3, §4, §5, §6

[9] = test system: K. pneumoniae ATCC 51503 (TEM-10/12); assay: as above; format: cell-based; conditions: Klebsiella pneumoniae, ATCC51503, 37° C. 20 hours, read-out: minimum inhibitory concentration, used alone
Protocol: as §1, §2, §3, §4, §5, §6

[10] = test system: E. cloacae ATCC BAA-1143 (AmpC); assay: as above; format: cell-based; conditions: Enterobacter cloacae, ATCCBAA1143, 37° C. 20 hours, read-out: minimum inhibitory concentration, used alone
Protocol: as §1, §2, §3, §4, §5, §6

[11] = test system: K. pneumoniae ATCC BAA-1898 (KPC); assay: as above; format: cell-based; conditions: Klebsiella pneumoniae, ATCCBAA1898, 37° C. 20 hours, read-out: minimum inhibitory concentration, used alone
Protocol: as §1, §2, §3, §4, §5, §6

[12] = test system: K. pneumoniae ATCC BAA-205 (TEM-1/SHV-1/SHV-12); assay: as above; format: cell-based; conditions: Klebsiella pneumoniae, ATCCBAA205, 37° C. 20 hours, read-out: minimum inhibitory concentration, used alone
Protocol: as §1, §2, §3, §4, §5, §6

[13] = test system: K. pneumoniae ATCC BAA-1705 (KPC); assay: as above; format: cell-based; conditions: Klebsiella pneumoniae, ATCCBAA1705, 37° C. 20 hours, read-out: minimum inhibitory concentration, used alone
Protocol: as §1, §2, §3, §4, §5, §6

[14] = test system: NDM-1 metalloenzyme-producing strains (8 strains), clinically isolated Klebsiella pneumoniae; assay: SIC assay against Chinese clinical isolates (broth microdilution MIC); format: cell-based; conditions: for MIC50 / MIC90: Klebsiella pneumoniae; for MIC50 / MIC90 / MIC range: NDM-1 metalloenzyme-producing K. pneumoniae clinical isolates (8 strains), enzyme inhibitor in combinations fixed at 4 μg/mL; for drug resistance rate / drug sensitive rate: NDM-1 metalloenzyme-producing strains (8 strains), CLSI criteria of the antibiotic, inhibitor fixed at 4 μg/mL
Excerpt: (§7) The broth microdilution method was used to determine the minimum inhibitory concentration (MIC) of antibacterial agents (with and without BLI lead compound) against clinical isolates of carbapenemase-producing strains.
(§8) 1. Drug susceptibility test: according to the method of antimicrobial susceptibility test described in the 2016 edition of the US Clinical and Laboratory Standards Institute (CLSI) document, the MIC of commonly used antibacterial drugs against clinically isolated bacteria was determined by a broth microdilution method.
(§9) 2. Strains: 8 KPC-2 carbapenemase-producing strains, 8 NDM-1 metalloenzyme-producing strains, and 6 OXA-181 carbapenemase-producing strains. All strains were clinically isolated Klebsiella pneumoniae.
(§10) 4. Quality control strains: quality control strains of the drug susceptibility test include Escherichia coli ATCC 25922 and ATCC 35218.

[15] = test system: KPC-2 carbapenemase-producing strains (8 strains), clinically isolated Klebsiella pneumoniae; assay: as above; format: cell-based; conditions: for drug resistance rate / drug sensitive rate: KPC-2 carbapenemase-producing strains (8 strains), CLSI criteria of the antibiotic, inhibitor fixed at 4 μg/mL
Excerpt: as §7, §8, §9, §10

[16] = test system: OXA-181 carbapenemase-producing strains (7 strains), clinically isolated Klebsiella pneumoniae; assay: as above; format: cell-based; conditions: for MIC50 / MIC90: Klebsiella pneumoniae; for drug resistance rate / drug sensitive rate: OXA-181 carbapenemase-producing strains (7 strains), CLSI criteria of the antibiotic, inhibitor fixed at 4 μg/mL
Excerpt: as §7, §8
2. […] All strains were clinically isolated Klebsiella pneumoniae.
as §10

[17] = target: AmpC-EC (Class C) β-lactamase (UniProt P05364); assay: In vitro enzymatic assay (Nitrocefin); format: biochemical; conditions: Nitrocefin 0.1 mM, 1 × PBS pH 7.4, 0.1 mg/mL BSA, read-out: IC50, inhibitory activity on β-lactamase
Protocol: (§11) 2) Prepare buffer solution A (1×PBS, pH 7.4, 0.1 mg/mL BSA) for enzymatic assay;
(§12) 3) The compound mother liquor was 4-fold serial diluted for 11 times with DMSO in a 96-well tip-bottom plate, which was used as a working solution. A 96-well flat bottom plate was used as a test plate, the corresponding reaction buffer was previously added to each well, followed by addition of a corresponding volume of the working solution (100 μM-0.095 nM and 0 nM). Wherein, EDTA-Na2 was used as a control for the NDM-1 test at a concentration of 20 mM;
(§13) 4) adding the corresponding β-lactamase, and the test plate was incubated at 37° C. for 5 minutes;
(§14) 5) Adding 5 μL Nitrocefin (the final reaction volume was 100 μL), the absorbance OD490 of the reaction solution in the plate was measured by a microplate reader and the result was recorded, the absorbance was measured every minute over 30 minutes;
(§15) 6) The microplate reader could give a curve of OD490 over time. The slope of the curve (Abs2−Abs1)/(T2−T1) was calculated by taking two data points Abs1 and Abs2 within the linear range of the curve.
(§16) 7) The relative inhibition rate was calculated as follows: Slope (EC) was calculated under the condition of absence of an inhibitor, and Slop(S) was calculated under the condition of an inhibitor at a certain concentration.
(§17) The relative inhibition rate and the corresponding concentration of the inhibitor were used to calculate the IC50 value of the inhibitor on β-lactamase. In this experiment, the IC50 was calculated using the formula of GraphPad Prism 5.0, log(inhibitor) vs. normalized response-Variable slope.

[18] = target: CTX-M-44 (Class C) β-lactamase (Escherichia coli, UniProt Q47066); assay: In vitro enzymatic assay (Nitrocefin); format: biochemical
Protocol: as §11, §12, §13, §14, §15, §16, §17

[19] = target: OXA-2 (Class D) β-lactamase (Escherichia coli, UniProt P0A1V9); assay: In vitro enzymatic assay (Nitrocefin); format: biochemical
Protocol: as §11, §12, §13, §14, §15, §16, §17

[20] = target: OXA-9 (Class D) β-lactamase (Klebsiella pneumoniae, UniProt P0A3M3); assay: In vitro enzymatic assay (Nitrocefin); format: biochemical
Protocol: as §11, §12, §13, §14, §15, §16, §17

[21] = Klebsiella pneumoniae, KPC-2 carbapenemase-producing K. pneumoniae clinical isolates (8 strains), enzyme inhibitor in combinations fixed at 4 μg/mL
[22] = OXA-181 carbapenemase-producing K. pneumoniae clinical isolates (7 strains), enzyme inhibitor in combinations fixed at 4 μg/mL

Compound | MIC [1] [µg/mL] | MIC [2] [µg/mL] | MIC [3] [µg/mL] | MIC [4] [µg/mL] | MIC [5] [µg/mL] | MIC [6] [µg/mL] | MIC [7] [µg/mL] | MIC [8] [µg/mL] | MIC [9] [µg/mL] | MIC [10] [µg/mL] | MIC [11] [µg/mL] | MIC [12] [µg/mL] | MIC [13] [µg/mL] | MIC50 [14] [µg/mL] | MIC90 [14] [µg/mL] | MIC range [14] [µg/mL] | drug resistance rate [14] | drug sensitive rate [14] | drug resistance rate [15] | drug sensitive rate [15] | other results
C[C@@H](O)[C@H]1C(=O)N2C(C(=O)O)=C(S[C@@H]3CN[C@H](C(=O)Nc4cccc(C(=O)O)c4)C3)[C@H](C)[C@H]12 [Ertapenem, ertapenem] | 4 | > 128 | > 128 | 8 |  |  |  |  |  |  |  |  |  |  |  |  |  |  |  |  | 
NCCONC(=O)[C@@H]1CC[C@@H]2CN1C(=O)N2OS(=O)(=O)O [OP-0595] | > 128 | > 128 | > 128 | 16 | > 128 | > 128 | > 128 | > 128 | > 128 | 4 | > 128 | > 128 | > 128 |  |  |  |  |  |  |  | 
CC(C)(O/N=C(\C(=O)N[C@@H]1C(=O)N2C(C(=O)[O-])=C(C[n+]3ccccc3)CS[C@H]12)c1csc(N)n1)C(=O)O [Ceftazidime, ceftazidime] |  |  |  |  | 64 | > 128 | > 128 | > 128 | > 128 | > 128 | > 128 | 32 | > 128 | > 128 | > 128 | >128 | 100 | 0 | 100 | 0 | MIC range ([15]; KPC-2 carbapenemase-producing K. pneumoniae clinical isolates (8 strains), enzyme inhibitor in combinations fixed at 4 μg/mL): 64 to 128 µg/mL; MIC50 [15, 21]: > 128 µg/mL; MIC90 [15, 21]: > 128 µg/mL; MIC50 [16, 22]: > 128 µg/mL; MIC90 [16, 22]: > 128 µg/mL; drug resistance rate [16]: 100; drug sensitive rate [16]: 0
NC(=O)[C@@H]1CC[C@@H]2CN1C(=O)N2OS(=O)(=O)O [Avibactam, avibactam] |  |  |  |  |  |  |  |  |  |  |  |  |  |  |  |  |  |  |  |  | IC50 [17]: 107 nM; IC50 [18]: 67 nM; IC50 [19]: 1490 nM; IC50 [20]: 3130 nM
C[C@@H](O)[C@H]1C(=O)N2C(C(=O)O)=C(S[C@@H]3CN[C@H](C(=O)N(C)C)C3)[C@H](C)[C@H]12 [meropenem] |  |  |  |  |  |  |  |  |  |  |  |  |  | 4 | 32 | 2 to 32 | 75 | 0 | 100 | 0 | MIC50 [15, 21]: 64 µg/mL; MIC50 [16, 22]: 0.5 µg/mL; MIC90 [16, 22]: 2 µg/mL; MIC range [16, 22]: 0.5 to 2 µg/mL; drug resistance rate [16]: 0; drug sensitive rate [16]: 85.7
C[C@H]1[C@H](NC(=O)/C(=N\OC(C)(C)C(=O)O)c2csc(N)n2)C(=O)N1S(=O)(=O)O [aztreonam] |  |  |  |  |  |  |  |  |  |  |  |  |  | 64 |  |  |  |  |  |  | 
